Data published in PubChem BioAssay AID1963846 (Molecular Pharmacology Branch, DTP, NCI, 2024).

System: 454973-116-R2-J3-PDC complex spheroid viability
Experiment: Anticancer human tumor 454973-116-R2-J3-PDC patient-derived pancreatic carcinoma cell line growth inhibition [POLQ]
Conditions: for IC50: curve of first compound; for viability, T/C: stronger effect = lower value
Procedure, shortened: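 Patient-derived tumour cells were co-cultured with HUVEC and mesenchymal stem cells as multicellular spheroids at 37 °C. They were treated with POLQ inhibitors (novobiocin, ART-558, RP6685) alone or combined with other agents. Top concentrations were at or near clinical Cmax (otherwise 10 microM; SN-38 at 1 microM), decreasing in half-log steps.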

[1] = second compound 0.0316 µM, first compound 0.0316 µM
[2] = second compound 0.0316 µM, first compound 0.1 µM
[3] = second compound 0.0316 µM, first compound 0.316 µM
[4] = second compound 0.0316 µM, first compound 1 µM
[5] = second compound 0.0316 µM, first compound 3.16 µM
[6] = second compound 0.0316 µM, first compound 10 µM
[7] = second compound 0.1 µM, first compound 0.0316 µM
[8] = second compound 0.1 µM, first compound 0.1 µM
[9] = second compound 0.1 µM, first compound 0.316 µM
[10] = second compound 0.1 µM, first compound 1 µM
[11] = second compound 0.1 µM, first compound 3.16 µM
[12] = second compound 0.1 µM, first compound 10 µM
[13] = second compound 0.316 µM, first compound 0.0316 µM
[14] = second compound 0.316 µM, first compound 0.1 µM
[15] = second compound 0.316 µM, first compound 0.316 µM
[16] = second compound 0.316 µM, first compound 1 µM
[17] = second compound 0.316 µM, first compound 3.16 µM
[18] = second compound 0.316 µM, first compound 10 µM
[19] = second compound 1 µM, first compound 0.0316 µM
[20] = second compound 1 µM, first compound 0.1 µM
[21] = second compound 1 µM, first compound 0.316 µM
[22] = second compound 1 µM, first compound 1 µM
[23] = second compound 1 µM, first compound 3.16 µM
[24] = second compound 1 µM, first compound 10 µM
[25] = second compound 3.16 µM, first compound 0.0316 µM
[26] = second compound 3.16 µM, first compound 0.1 µM
[27] = second compound 3.16 µM, first compound 0.316 µM
[28] = second compound 3.16 µM, first compound 1 µM
[29] = second compound 3.16 µM, first compound 3.16 µM
[30] = second compound 3.16 µM, first compound 10 µM
[31] = second compound 10 µM, first compound 0.0316 µM
[32] = second compound 10 µM, first compound 0.1 µM
[33] = second compound 10 µM, first compound 0.316 µM
[34] = second compound 10 µM, first compound 1 µM
[35] = second compound 10 µM, first compound 3.16 µM
[36] = second compound 10 µM, first compound 10 µM
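Also: spheroids exposed to drugs for seven days before measurement.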
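For viability, T/C in this document: percent viability relative to DMSO vehicle control wells taken as 100%.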

COc1cc(C2c3cc4c(cc3C(OC3OC5COC(C)OC5C(O)C3O)C3COC(=O)C23)OCO4)cc(OC)c1O (stereo not drawn) + COC1C(OC(N)=O)C(O)C(Oc2ccc3c(O)c(NC(=O)c4ccc(O)c(CC=C(C)C)c4)c(=O)oc3c2C)OC1(C)C
IC50 (second compound 0.0316 µM): 1590 nM | IC50 (second compound 0.1 µM): 1570 nM | IC50 (second compound 0.316 µM): 1810 nM | IC50 (second compound 1 µM): 1600 nM | IC50 (second compound 3.16 µM): 1490 nM | IC50 (second compound 10 µM): 1330 nM | viability, T/C [1]: 97.7% | viability, T/C [2]: 108% | viability, T/C [3]: 92.7% | viability, T/C [4]: 66.8% | viability, T/C [5]: 25.3% | viability, T/C [6]: 9.55% | viability, T/C [7]: 100% | viability, T/C [8]: 111% | viability, T/C [9]: 93% | viability, T/C [10]: 67.8% | viability, T/C [11]: 23.5% | viability, T/C [12]: 11.8% | viability, T/C [13]: 106% | viability, T/C [14]: 107% | viability, T/C [15]: 93.8% | viability, T/C [16]: 81.2% | viability, T/C [17]: 20.7% | viability, T/C [18]: 9.08% | viability, T/C [19]: 116% | viability, T/C [20]: 97.9% | viability, T/C [21]: 95.6% | viability, T/C [22]: 70.4% | viability, T/C [23]: 21.9% | viability, T/C [24]: 10.6% | viability, T/C [25]: 118% | viability, T/C [26]: 101% | viability, T/C [27]: 96.6% | viability, T/C [28]: 63.6% | viability, T/C [29]: 24.7% | viability, T/C [30]: 9.62% | viability, T/C [31]: 122% | viability, T/C [32]: 94.7% | viability, T/C [33]: 90.6% | viability, T/C [34]: 61.4% | viability, T/C [35]: 21.4% | viability, T/C [36]: 8.32%

O=c1[nH]cc(F)c(=O)[nH]1 + Nc1ccc(C#CCN(C(=O)Cc2ncc(C(F)(F)F)cc2C(F)(F)F)c2ccc(F)cc2)nn1
IC50 (second compound 0.0316 µM): 1730 nM | IC50 (second compound 0.1 µM): 1740 nM | IC50 (second compound 0.316 µM): 1850 nM | IC50 (second compound 1 µM): 1310 nM | IC50 (second compound 3.16 µM): 1550 nM | IC50 (second compound 10 µM): 1550 nM | viability, T/C [1]: 108% | viability, T/C [2]: 116% | viability, T/C [3]: 102% | viability, T/C [4]: 67% | viability, T/C [5]: 28.6% | viability, T/C [6]: 33.2% | viability, T/C [7]: 105% | viability, T/C [8]: 103% | viability, T/C [9]: 97.4% | viability, T/C [10]: 69.2% | viability, T/C [11]: 27.2% | viability, T/C [12]: 30.2% | viability, T/C [13]: 107% | viability, T/C [14]: 106% | viability, T/C [15]: 103% | viability, T/C [16]: 71% | viability, T/C [17]: 29.2% | viability, T/C [18]: 33.9% | viability, T/C [19]: 108% | viability, T/C [20]: 102% | viability, T/C [21]: 109% | viability, T/C [22]: 56.1% | viability, T/C [23]: 28.1% | viability, T/C [24]: 32.1% | viability, T/C [25]: 120% | viability, T/C [26]: 117% | viability, T/C [27]: 106% | viability, T/C [28]: 63.5% | viability, T/C [29]: 25.4% | viability, T/C [30]: 32.5% | viability, T/C [31]: 119% | viability, T/C [32]: 118% | viability, T/C [33]: 115% | viability, T/C [34]: 63.7% | viability, T/C [35]: 24.3% | viability, T/C [36]: 31.1%

Nc1ccn(C2OC(CO)C(O)C2(F)F)c(=O)n1 (stereo not drawn) + Nc1ccc(C#CCN(C(=O)Cc2ncc(C(F)(F)F)cc2C(F)(F)F)c2ccc(F)cc2)nn1
IC50 (second compound 0.0316 µM): < 31.6 nM | IC50 (second compound 0.1 µM): < 31.6 nM | IC50 (second compound 0.316 µM): < 31.6 nM | IC50 (second compound 1 µM): < 31.6 nM | IC50 (second compound 3.16 µM): < 31.6 nM | IC50 (second compound 10 µM): < 31.6 nM | viability, T/C [1]: 6.99% | viability, T/C [2]: 8.25% | viability, T/C [3]: 7.01% | viability, T/C [4]: 6.38% | viability, T/C [5]: 8.02% | viability, T/C [6]: 5.63% | viability, T/C [7]: 8.85% | viability, T/C [8]: 7.54% | viability, T/C [9]: 7.93% | viability, T/C [10]: 6.21% | viability, T/C [11]: 7.06% | viability, T/C [12]: 5.26% | viability, T/C [13]: 7.49% | viability, T/C [14]: 6.66% | viability, T/C [15]: 6.67% | viability, T/C [16]: 7.27% | viability, T/C [17]: 6.52% | viability, T/C [18]: 5.87% | viability, T/C [19]: 9.44% | viability, T/C [20]: 6.21% | viability, T/C [21]: 6.52% | viability, T/C [22]: 6.07% | viability, T/C [23]: 6.68% | viability, T/C [24]: 5.65% | viability, T/C [25]: 9.42% | viability, T/C [26]: 6.2% | viability, T/C [27]: 6.31% | viability, T/C [28]: 6.8% | viability, T/C [29]: 7.81% | viability, T/C [30]: 5.38% | viability, T/C [31]: 7.43% | viability, T/C [32]: 5.82% | viability, T/C [33]: 5.66% | viability, T/C [34]: 6.28% | viability, T/C [35]: 7.1% | viability, T/C [36]: 4.05%

C=CC(=O)N1CCN(c2nc(=O)n(-c3c(C)ccnc3C(C)C)c3nc(-c4c(O)cccc4F)c(F)cc23)C(C)C1 (stereo not drawn) + Cc1cccc(N(C)C(=O)C2C(O)CCN2c2nc(C)cc(C(F)(F)F)c2C#N)c1
IC50 (second compound 0.0316 µM): > 10000 nM | IC50 (second compound 0.1 µM): > 10000 nM | IC50 (second compound 0.316 µM): > 10000 nM | IC50 (second compound 1 µM): > 10000 nM | IC50 (second compound 3.16 µM): > 10000 nM | IC50 (second compound 10 µM): > 10000 nM | viability, T/C [1]: 100% | viability, T/C [2]: 99.5% | viability, T/C [3]: 98.7% | viability, T/C [4]: 115% | viability, T/C [5]: 106% | viability, T/C [6]: 109% | viability, T/C [7]: 96.9% | viability, T/C [8]: 101% | viability, T/C [9]: 107% | viability, T/C [10]: 107% | viability, T/C [11]: 110% | viability, T/C [12]: 115% | viability, T/C [13]: 101% | viability, T/C [14]: 107% | viability, T/C [15]: 108% | viability, T/C [16]: 106% | viability, T/C [17]: 108% | viability, T/C [18]: 111% | viability, T/C [19]: 108% | viability, T/C [20]: 102% | viability, T/C [21]: 115% | viability, T/C [22]: 105% | viability, T/C [23]: 110% | viability, T/C [24]: 110% | viability, T/C [25]: 107% | viability, T/C [26]: 111% | viability, T/C [27]: 103% | viability, T/C [28]: 118% | viability, T/C [29]: 112% | viability, T/C [30]: 108% | viability, T/C [31]: 115% | viability, T/C [32]: 102% | viability, T/C [33]: 109% | viability, T/C [34]: 113% | viability, T/C [35]: 111% | viability, T/C [36]: 109%
